Counter-ions that a name gives are not always drawn.

The target of the test is T1, human LPA1 (Homo sapiens, UniProt Q92633).
T1 construct: expressed in transfected cells; host or cells: Chinese hamster ovary (CHO) cells
T1 sequence (Q92633 whole entry): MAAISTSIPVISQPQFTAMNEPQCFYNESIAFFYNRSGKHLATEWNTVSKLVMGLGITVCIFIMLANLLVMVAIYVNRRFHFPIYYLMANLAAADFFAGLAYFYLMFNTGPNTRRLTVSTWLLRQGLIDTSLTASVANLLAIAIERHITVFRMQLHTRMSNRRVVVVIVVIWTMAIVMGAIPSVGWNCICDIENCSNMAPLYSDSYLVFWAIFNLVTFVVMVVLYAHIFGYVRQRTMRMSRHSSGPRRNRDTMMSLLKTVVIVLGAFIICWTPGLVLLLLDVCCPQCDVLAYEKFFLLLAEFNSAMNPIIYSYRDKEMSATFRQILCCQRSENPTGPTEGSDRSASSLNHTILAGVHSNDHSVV
As to the kind of experiment: LPA1 functional antagonist assay (calcium flux). To be noted: Chinese hamster ovary cells overexpressing human LPA1; calcium flux induced by 10 nM LPA; read-out: hLPA1 IC50. The format is cell-based. Here is the method: The effectiveness of compounds of the present invention as LPA1 inhibitors can be determined in an LPA1 functional antagonist assay as follows:
Chinese hamster ovary cells overexpressing human LPA1 were plated overnight (15,000 cells/well) in poly-D-lysine coated 384-well microplates (Greiner bio-one, Cat #781946) in DMEM/F12 medium (Gibco, Cat #11039). Following overnight culture, cells were loaded with calcium indicator dye (AAT Bioquest Inc, Cat #34601) for 30 minutes at 37° C. The cells were then equilibrated to room temperature for 30 minutes before the assay. Test compounds solubilized in DMSO were transferred to 384 well non-binding surface plates (Corning, Cat #3575) using the Labcyte Echo acoustic dispense and diluted with assay buffer [1×HBSS with calcium/magnesium (Gibco Cat #14025-092), 20 mM HEPES (Gibco Cat #15630-080) and 0.1% fatty acid free BSA (Sigma Cat #A9205)] to a final concentration of 0.5% DMSO. Diluted compounds were added to the cells by FDSS6000 (Hamamatsu) at final concentrations ranging from 0.08 nM to 5 μM. and were then incubated for 20 min at room temperature at which time LPA (Avanti Polar Lipids Cat #857130C) was added at final concentrations of 10 nM to stimulate the cells.
The compound IC50 value was defined as the concentration of test compound which inhibited 50% of the calcium flux induced by LPA alone. IC50 values were determined by fitting data to a 4-parameter logistic equation (GraphPad Prism, San Diego Calif.).
What is called IC50 is the concentration needed to halve the response being measured. For `Cc1nc(-c2cnn(C)c2CNc2cnn(-c3ccccc3)n2)ncc1O[C@H]1CCC[C@H](C(=O)O)C1` [Example 1, (1S,3S)-3-((4-methyl-2-(1-methyl-5-(((2-phenyl-2H-1,2,3-triazol-4-yl)amino)methyl)-1H-pyrazol-4-yl)pyrimidin-5-yl)oxy)cyclohexane-1-carboxylicacid], the IC50 was 35 nM.

On to `Cc1nc(-c2cnn(C)c2CNc2nc(C(C)C)ns2)ncc1O[C@H]1CCC[C@H](C(=O)O)C1` [Example 2, (1S,3S)-3-((2-(5-(((3-isopropyl-1,2,4-thiadiazol-5-yl)amino)methyl)-1-methyl-1H-pyrazol-4-yl)-4-methylpyrimidin-5-yl)oxy)cyclohexane-1-carboxylic acid], for which the IC50 was 1860 nM.

`CCCc1nsc(Nc2c(-c3ncc(O[C@H]4CCC[C@H](C(=O)O)C4)c(C)n3)cnn2C)n1` [Example 3, (1S,3S)-3-((4-methyl-2-(1-methyl-5-((3-propyl-1,2,4-thiadiazol-5-yl)amino)-1H-pyrazol-4-yl)pyrimidin-5-yl)oxy)cyclohexane-1-carboxylic acid]: the IC50 stood at 437 nM.

Turning to `Cc1nc(-c2cnn(C)c2CNc2noc(CCC(C)C)n2)ncc1O[C@H]1CCC[C@H](C(=O)O)C1` [Example 4, (1S,3S)-3-((2-(5-(((5-isopentyl-1,2,4-oxadiazol-3-yl)amino)methyl)-1-methyl-1H-pyrazol-4-yl)-4-methylpyrimidin-5-yl)oxy)cyclohexane-1-carboxylic acid, bis TFA salt], the IC50 turned out to be 10 nM.

In the case of `Cc1nc(-c2cnn(C)c2Nc2nc(C3CC3)ns2)ncc1O[C@H]1CCC[C@H](C(=O)O)C1` [Example 5], the half-inhibitory concentration (IC50) was found to be 341 nM.

For the molecule `CCCCc1nc(NCc2c(-c3ncc(O[C@H]4CCC[C@H](C(=O)O)C4)c(C)n3)cnn2C)no1` [Example 6], the IC50 was 31 nM.

`Cc1nc(-c2cnn(C)c2CNc2noc(CC3CCC3)n2)ncc1O[C@H]1CCC[C@H](C(=O)O)C1` [Example 7]: the IC50 stood at 9 nM.

For `Cc1nc(-c2cnn(C)c2CNc2ncn(-c3ccccc3)n2)ncc1O[C@H]1CCC[C@H](C(=O)O)C1` [Example 8], the IC50 was 91 nM.

`Cc1nc(-c2cnn(C)c2Cn2cc(CC3CC3)nn2)ncc1O[C@H]1CCC[C@H](C(=O)O)C1` [Example 9, (1S,3S)-3-((2-(5-((4-(cyclopropylmethyl)-1H-1,2,3-triazol-1-yl)methyl)-1-methyl-1H-pyrazol-4-yl)-4-methylpyrimidin-5-yl)oxy)cyclohexane-1-carboxylic acid]: the IC50 came out at 636 nM.

On to `CCc1nc(-c2cnn(C)c2Cn2cc(Cc3ccccc3)nn2)ncc1O[C@H]1CCC[C@H](C(=O)O)C1` [Example 10], for which the IC50 worked out at 26 nM.

Consider `CCCCc1cn(Cc2c(-c3ncc(O[C@H]4CCC[C@H](C(=O)O)C4)c(CC)n3)cnn2C)nn1` [Example 11], for which the IC50 was found to be 399 nM.

With `CCc1nc(-c2cnn(C)c2Cn2cc(CC3CC3)nn2)ncc1O[C@H]1CCC[C@H](C(=O)O)C1` [Example 12], the IC50 was 230 nM.

For the origin of these results see patent publication US11352345B2, “Cyclohexyl acid pyrazole azoles as LPA antagonists” (BRISTOL-MYERS SQUIBB COMPANY, priority 2017, dated 2022).
